Results on 74 compounds are retold here after PubChem BioAssay AID687022 (Broad Institute, 2013).

Each structure is given as a SMILES string. Active and inactive are the calls of the source.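 Rule for the calls: active = Fitted curve of melting temperature shift crosses the 1.0 threshold at or below the sample's highest valid tested concentration; inconclusive = Flat fit with activity 30 to 70, or invalid fit; inactive = Opposite direction, flat within 30, or no crossing.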

In this assay the target is Fibroblast growth factor 22 (Homo sapiens) (UniProt Q9HCT0). Put plainly: binders of human FGF22 protein, dose response, FGF22 synaptogenesis inhibitor project, biophysical, thermal shift, cherry-pick (AID 687022). To be noted: recombinant FGF22 thermal shift, SYPRO orange melting.
Chain of Fibroblast growth factor 22 (Homo sapiens) (Q9HCT0 whole entry, looked up): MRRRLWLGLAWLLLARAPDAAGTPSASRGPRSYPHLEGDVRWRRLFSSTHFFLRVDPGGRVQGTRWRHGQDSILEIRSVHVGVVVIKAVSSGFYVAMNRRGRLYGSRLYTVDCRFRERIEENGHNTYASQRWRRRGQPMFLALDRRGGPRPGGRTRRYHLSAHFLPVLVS
For the compound `Cc1[nH]c2ccccc2c1C(=O)NS(=O)(=O)Nc1ccc(Cl)cc1`, the AbsAC1 (concentration giving Tm-shift threshold 1.0) was 3.06 µM.

`O=C(N/N=C\c1c[nH]c2ccccc12)c1ccc(O)cc1`: the AbsAC1 (concentration giving Tm-shift threshold 1.0) was 1.85 µM.

On to `CSCCC(NS(=O)(=O)c1ccc(Cl)c(Cl)c1)C(=O)O` (centres undefined), for which the AbsAC1 (concentration giving Tm-shift threshold 1.0) was > 38 µM (inactive). Take `COC12CC(=O)C(C(C)=O)=C(O)C1(C)c1c(O)c(C)c(O)c(C(C)=O)c1O2` (centres undefined): the AbsAC1 (concentration giving Tm-shift threshold 1.0) was 6.77 µM. For `Cc1ccc(Cl)cc1N1CCN(C(=O)Cc2c(C(=O)O)[nH]c3ccc(Cl)cc23)CC1` the value was 4.47 µM. For `COc1cccc(NC(=O)N(C)C[C@H]2Oc3cc(-c4ccccc4F)ccc3S(=O)(=O)N([C@H](C)CO)C[C@@H]2C)c1`, the AbsAC1 (concentration giving Tm-shift threshold 1.0) was 8.76 µM.

For the compound `CCOc1ccc(N2C(=O)C(CC(=O)Nc3ccc(F)cc3)N(Cc3ccccn3)C2=S)cc1` (centres undefined), the AbsAC1 (concentration giving Tm-shift threshold 1.0) is 9.4 µM. As for `C[C@@H]1CN([C@@H](C)CO)S(=O)(=O)c2ccc(-c3ccc(F)cc3)cc2O[C@@H]1CN(C)C(=O)Nc1ccccc1F`, the AbsAC1 (concentration giving Tm-shift threshold 1.0) is > 38 µM (inactive).

For `CSc1ccc(/C=N/NC(=O)c2ccc3nc[nH]c3c2)cc1`, the AbsAC1 (concentration giving Tm-shift threshold 1.0) is 1.58 µM. As to `O=C(CCc1ccc(O)cc1)c1c(O)cc(O)cc1O`, the AbsAC1 (concentration giving Tm-shift threshold 1.0) was 1.74 µM. For `COc1ccc(C)cc1NS(=O)(=O)c1ccc(NS(=O)(=O)c2ccc(NC(C)=O)cc2)cc1`, the AbsAC1 (concentration giving Tm-shift threshold 1.0) is 3.7 µM.

For the compound `Cc1ccc(NC(=O)Nc2cccnc2)cc1`, the AbsAC1 (concentration giving Tm-shift threshold 1.0) was 27.1 µM. In the case of `O=C(N/N=C/c1c(O)ccc2ccccc12)c1[nH]ncc1Br`, the AbsAC1 (concentration giving Tm-shift threshold 1.0) is 23.7 µM.

Take `CC(=O)c1c(C)nc(-c2ccc(OCC(=O)Nc3ccc(F)cc3)cc2)n1O`: the AbsAC1 (concentration giving Tm-shift threshold 1.0) is 16.3 µM. For the compound `COc1ccccc1NS(=O)(=O)c1cc(C(=O)Nc2ccc(S(=O)(=O)Nc3onc(C)c3C)cc2)ccc1C`, the AbsAC1 (concentration giving Tm-shift threshold 1.0) is 4.31 µM. For `CCOC(=O)c1c(N)sc(C(=O)Nc2ccccc2)c1C` the value was 3.02 µM; for `Cc1ccc(S(=O)(=O)NCCC(=O)Nc2ccc(C)c(Cl)c2)cc1C`, 4.71 µM; for `O=S(=O)(Nc1nnc(C(F)(F)F)s1)c1ccc(Cl)cc1`, 3.42 µM. In the case of `O=C(N/N=C\c1cccnc1)c1cc(-c2ccc(Cl)s2)[nH]n1`, the AbsAC1 (concentration giving Tm-shift threshold 1.0) was > 38 µM (inactive). For `COc1ccccc1NC(=O)c1ccc(NC(=O)c2ccc(=O)[nH]c2)cc1`, the AbsAC1 (concentration giving Tm-shift threshold 1.0) was 4.02 µM. For `O=C(Nc1cc(Cl)cc(Cl)c1)N[C@H]1CC[C@H](CCNS(=O)(=O)c2cccc(F)c2)O[C@@H]1CO`, the AbsAC1 (concentration giving Tm-shift threshold 1.0) was 11 µM. On to `COC(=O)c1cc(OC)c(OC)cc1NC(=O)c1ccccc1C`, for which the AbsAC1 (concentration giving Tm-shift threshold 1.0) is 16.7 µM. For `C[C@H](CO)N1C[C@H](C)[C@H](CN(C)C(=O)Nc2ccc(C(F)(F)F)cc2)Oc2cc(-c3ccncc3)ccc2S1(=O)=O` the value was 10.3 µM; for `C/C(=N\NC(=O)c1nnn(-c2nonc2N)c1CSc1ccc(C)cc1)c1cccnc1`, 37.4 µM; for `COc1ccc(CN2C(=O)N(c3ccc(OC)cc3)C(=O)C2CC(=O)Nc2ccccc2)cc1` (centres undefined), 6.06 µM. Next, `CC(C)CCNC(=O)c1onc(CSc2ccncc2)c1C(=O)NCCC(C)C`: 3.89 µM; `CC(=O)Nc1ccc(S(=O)(=O)Nc2nc3ccccc3nc2Nc2cccc(S(N)(=O)=O)c2)cc1`: 12.7 µM; `O=C(C[C@H]1CC[C@H]2[C@@H](COC[C@H](O)CN2Cc2ccccc2)O1)NCCc1ccccc1`: > 38 µM (inactive). Turning to `COc1ccc(N(C)S(=O)(=O)c2cccc(C(=O)Nc3ccc(N4CCOCC4)cc3)c2)cc1`, the AbsAC1 (concentration giving Tm-shift threshold 1.0) was 9 µM. For `Cc1[nH]c2ccccc2c1/C=N/NC(=O)c1cccc(F)c1` the value was 9.79 µM; for `C[C@@H]1CN([C@H](C)CO)S(=O)(=O)c2ccc(-c3ccc(F)cc3)cc2O[C@@H]1CN(C)C(=O)Nc1ccccc1F`, 22.1 µM; for `O=C(CN(Cc1ccccc1)S(=O)(=O)c1ccccc1)N/N=C/c1ccccc1C(=O)O`, 18.9 µM. Next, `Cn1c(C(=O)NCCc2c[nH]c3ccccc23)cc2sccc21`: 2.76 µM. For `Cc1ccc(CCNc2ncnc(Cl)c2N)cc1` the value was 6.55 µM. As for `Cc1cccc(S(=O)(=O)N2C[C@H](O)COC[C@H]3O[C@H](CC(=O)Nc4ccccc4)CC[C@@H]32)c1`, the AbsAC1 (concentration giving Tm-shift threshold 1.0) was 7.19 µM. Regarding `N#Cc1c(-c2ccccc2)nc(-c2ccncc2)[nH]c1=O`, the AbsAC1 (concentration giving Tm-shift threshold 1.0) is 30.3 µM. For the compound `CCOC(=O)c1c(C)[nH]c(C)c1C(=O)COC(=O)/C=C/c1ccccc1[N+](=O)[O-]`, the AbsAC1 (concentration giving Tm-shift threshold 1.0) was 23.9 µM. With `COc1c(O)ccc(/C=C(\C#N)c2nc3ccccc3[nH]2)c1[N+](=O)[O-]`, the AbsAC1 (concentration giving Tm-shift threshold 1.0) is 7.61 µM.

Turning to `CN1C(=O)c2cc(NC(=O)c3cccc(F)c3)ccc2OC[C@@H]2O[C@H](CC(=O)NCc3ccccc3)CC[C@@H]21`, the AbsAC1 (concentration giving Tm-shift threshold 1.0) was 21 µM. Next, `O=C(CCc1c[nH]c2ccccc12)Nc1ccc(Oc2cccnc2)cc1`: 7.99 µM; `COc1ccc(N2C(=O)C(CC(=O)Nc3ccccc3)N(Cc3ccc4c(c3)OCO4)C2=O)cc1` (centres undefined): 6.04 µM. For `CN1C(=O)c2cc(NC(=O)c3cccc(F)c3)ccc2OC[C@H]2O[C@@H](CC(=O)NCC3CCCCC3)CC[C@H]21`, the AbsAC1 (concentration giving Tm-shift threshold 1.0) is 22.3 µM. For `O=C(CNS(=O)(=O)c1ccccc1)OCC(=O)c1c[nH]c2ccccc12` the value was 9.88 µM; for `CC(=O)Nc1ccc(S(=O)(=O)N(CCc2ccccc2)CC(=O)N/N=C/c2ccc(C(=O)O)cc2)cc1`, 7.42 µM; for `NS(=O)(=O)c1cc(C(=O)NC2CCSc3ccccc32)ccc1Cl` (centres undefined), 9.54 µM. Next, `Cc1cc(NC(=O)Nc2ccc3c(ccn3C)c2)sn1`: 3.42 µM; `CC(=O)c1ccc(OCCCC(=O)Nc2ccc(S(=O)(=O)N3CCOCC3)cc2)cc1`: > 38 µM (inactive); `COc1ccc(N(CC(=O)N/N=C/c2ccc(OC)c(OC)c2)S(=O)(=O)c2ccccc2)cc1`: 18.5 µM. Next, `O=C(CN1C(=O)NC(Cc2c[nH]c3ccccc23)C1=O)Nc1ccc(Br)cc1F` (centres undefined): 4.93 µM. For the compound `Cc1[nH]c2ccccc2c1N=Nc1cc(C(=O)O)cc(C(=O)O)c1`, the AbsAC1 (concentration giving Tm-shift threshold 1.0) was 19.9 µM.

Take `COc1cc(NC(=O)c2csc(N)n2)cc(C(=O)Nc2cccc(C(F)(F)F)c2)c1`: the AbsAC1 (concentration giving Tm-shift threshold 1.0) was 10.3 µM.

Turning to `O=[N+]([O-])c1ccc(N/N=C/c2ccc[nH]2)cc1`, the AbsAC1 (concentration giving Tm-shift threshold 1.0) was 8.39 µM. Take `COc1ccc(NC(=O)N[C@H]2CC[C@@H](CCn3cc(-c4ccc(OC)cc4)nn3)O[C@@H]2CO)cc1`: the AbsAC1 (concentration giving Tm-shift threshold 1.0) is > 42 µM (inactive). Take `NS(=O)(=O)c1cccc(NC(=O)COC(=O)c2cc([N+](=O)[O-])ccc2N2CCCC2)c1`: the AbsAC1 (concentration giving Tm-shift threshold 1.0) was 5.86 µM. Next, `CCc1nnc(NS(=O)(=O)c2ccc(Nc3ccc([N+](=O)[O-])c4nonc34)cc2)s1`: > 5 µM (inactive); `Nc1nc(O)c(Sc2ccccc2[N+](=O)[O-])c(=O)[nH]1`: 2.7 µM; `C[C@@H]1CN([C@@H](C)CO)C(=O)Cc2cc(NC(=O)C3CC3)ccc2O[C@H]1CN(C)Cc1ccc(Cl)c(Cl)c1`: 16.7 µM.

In the case of `Cc1cc(C)cc(NS(=O)(=O)c2cc3[nH]c(=O)c(=O)[nH]c3cc2C)c1`, the AbsAC1 (concentration giving Tm-shift threshold 1.0) is 10.2 µM. With `O=C(Nc1ccc(O)cc1)c1cccc(Oc2ccc([N+](=O)[O-])cc2)c1`, the AbsAC1 (concentration giving Tm-shift threshold 1.0) was 4.32 µM. As for `COc1ccc(/C=N/Nc2ccc([N+](=O)[O-])cc2)cc1O`, the AbsAC1 (concentration giving Tm-shift threshold 1.0) was 4.37 µM. For `CCN1C(=O)C(CC(=O)Nc2ccc(F)cc2)N(Cc2ccc3c(c2)OCO3)C1=S` (centres undefined) the value was 2.83 µM; for `O=C(Nc1nccs1)C1CC(=O)N(c2ccc(F)cc2)C1` (centres undefined), 8.93 µM. Next, `O=C(NN=Cc1ccc(O)cc1O)c1ccccc1NS(=O)(=O)c1cccs1`: 32.7 µM; `CCN(CC)c1ccc2cc(S(=O)(=O)c3ccc(Cl)cc3)c(=O)oc2c1`: 5.6 µM.

Take `O=C(NCC1CCOCC1)c1ccc2nc(Cc3cccc(Cl)c3)oc2c1`: the AbsAC1 (concentration giving Tm-shift threshold 1.0) was 6.43 µM. For `COc1ccc(Cc2nnc(NS(=O)(=O)c3ccccc3)s2)cc1` the value was > 19.5 µM (inactive); for `CC(=O)Nc1ccc(/C(C)=N/Nc2nc(Nc3ccccc3)nc(N3CCOCC3)n2)cc1`, 7.91 µM; for `O=C(CC1SC(=O)NC1=O)Nc1ccc(Cl)cc1` (centres undefined), 3.11 µM. Next, `COc1ccc(NC(=O)c2[nH]ncc2[N+](=O)[O-])cc1`: 17.9 µM; `CCOc1ccc(-c2cc(C(=O)N/N=C/c3cccnc3)c3ccccc3n2)cc1`: 13 µM; `COc1ccc(-c2nc3ccc([N+](=O)[O-])cc3[nH]2)cc1`: 1.99 µM. Turning to `CN1C(=O)c2cc(NC(=O)c3cccc(F)c3)ccc2OC[C@@H]2O[C@H](CC(=O)NCC3CCCCC3)CC[C@@H]21`, the AbsAC1 (concentration giving Tm-shift threshold 1.0) was 16.8 µM. Next, `CC1(C(=O)NS(=O)(=O)c2ccc(Cl)cc2)CCN1C(=O)Cc1ccc(Cl)cc1Cl` (centres undefined): > 10 µM (inactive). For `C[C@H](CO)N1C[C@H](C)[C@H](CN(C)C(=O)Nc2ccc3c(c2)OCO3)Oc2cc(C3=CCCCC3)ccc2S1(=O)=O` the value was 20.3 µM.
